One data set deals with T1, SIRT1 (Homo sapiens, UniProt Q96EB6).
T1 construct: purchased Cayman chemical
T1 sequence (Q96EB6 1-747): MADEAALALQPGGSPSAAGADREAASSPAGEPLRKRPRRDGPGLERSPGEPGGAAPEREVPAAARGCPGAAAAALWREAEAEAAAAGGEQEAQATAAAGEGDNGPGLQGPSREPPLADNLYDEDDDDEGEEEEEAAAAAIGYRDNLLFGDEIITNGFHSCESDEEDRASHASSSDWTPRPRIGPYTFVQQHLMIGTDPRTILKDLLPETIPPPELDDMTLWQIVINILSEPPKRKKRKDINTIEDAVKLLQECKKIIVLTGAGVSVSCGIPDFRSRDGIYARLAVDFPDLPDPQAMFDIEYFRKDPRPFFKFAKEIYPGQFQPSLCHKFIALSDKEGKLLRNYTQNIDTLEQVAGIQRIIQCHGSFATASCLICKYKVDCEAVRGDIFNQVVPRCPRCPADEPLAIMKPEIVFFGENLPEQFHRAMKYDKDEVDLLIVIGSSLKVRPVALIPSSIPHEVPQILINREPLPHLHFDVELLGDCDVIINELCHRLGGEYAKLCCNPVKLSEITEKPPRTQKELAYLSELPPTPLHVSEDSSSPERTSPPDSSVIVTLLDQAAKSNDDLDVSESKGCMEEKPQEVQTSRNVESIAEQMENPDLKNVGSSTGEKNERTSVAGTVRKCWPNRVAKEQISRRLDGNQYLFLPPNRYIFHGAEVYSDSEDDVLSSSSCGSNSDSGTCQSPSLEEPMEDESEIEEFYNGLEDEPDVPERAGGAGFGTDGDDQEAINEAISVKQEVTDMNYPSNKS
Briefly: SIRT1 enzyme activity assay (Direct Fluorescent Screening Assay kit). It counts as biochemical. The following applies: read-out: SIRT1 maximal activation. How it is done:
SIRT1 enzyme activity was assayed with the SIRT1 Direct Fluorescent Screening Assay kit (Cayman chemical, MI, USA), according to the manufacturer’s instructions. Fluorescence was measured on an EnVision Multilabel Plate Reader (PerkinElmer, CA, USA). DMSO was used as a negative control and also as a solvent for resveratrol and ZBH.
Figure 4 Activation of SIRT1 by ZBH. SIRT1 enzyme activity was measured after treatment with ZBH and Resveratrol, and the fluorescence was tested on EnVision Multilabel Plate Reader. Values are mean±SE, n = 3.

The target in another data set is T2, hPPARγ (Homo sapiens, UniProt P37231).
T2 sequence (P37231 238-505 limits assumed): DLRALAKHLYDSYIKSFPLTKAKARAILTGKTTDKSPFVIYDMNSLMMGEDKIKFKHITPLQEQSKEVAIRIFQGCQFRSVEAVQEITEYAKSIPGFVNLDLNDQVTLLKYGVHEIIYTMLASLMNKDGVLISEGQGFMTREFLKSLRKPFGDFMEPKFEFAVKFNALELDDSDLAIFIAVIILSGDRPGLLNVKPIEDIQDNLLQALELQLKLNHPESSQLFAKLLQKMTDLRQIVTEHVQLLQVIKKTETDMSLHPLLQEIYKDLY
The data set is described as follows: In vitro transactivation assay, GAL4-hPPAR luciferase reporter in HEK-293 cells. It counts as cell-based. The following applies: HEK-293, 24 h treatment. The method, then:
(§1) Transactivation of PPARs was analyzed in a cell-based luciferase reporter assay using HEK-293 cells transiently transfected to express hPPAR-GAL4 chimeric receptors with plasmids GAL4-hPPAR α, γ, or δ, and pUAS (5x)-tk-luc receptor vector as previously described. 24 h after transfection, cells were treated with the indicated compounds, followed by the measurement of luciferase activity 24 h later. Mean values represent those obtained from at least three independent experiments performed in triplicate and normalized by the Renilla luciferase reading.
(§2) HEK-293 cells transiently transfected to express hPPAR-GAL4 chimeric receptors with plasmids GAL4-hPPAR α, γ, or δ, and pUAS (5x)-tk-luc receptor vector. 24 h after transfection, cells were treated with the indicated compounds at various concentrations followed by the measurement of luciferase activity 24 h after treatment. The results shown are the mean values obtained from at least three independent experiments performed in triplicate normalized by the Renilla luciferase reading.
A general note: In a reporter assay the amount or activity of a reporter protein is the signal.

For a further data set, the target named is T3, hPPARα (Homo sapiens, UniProt Q07869).
T3 sequence (Q07869 200-468 limits assumed): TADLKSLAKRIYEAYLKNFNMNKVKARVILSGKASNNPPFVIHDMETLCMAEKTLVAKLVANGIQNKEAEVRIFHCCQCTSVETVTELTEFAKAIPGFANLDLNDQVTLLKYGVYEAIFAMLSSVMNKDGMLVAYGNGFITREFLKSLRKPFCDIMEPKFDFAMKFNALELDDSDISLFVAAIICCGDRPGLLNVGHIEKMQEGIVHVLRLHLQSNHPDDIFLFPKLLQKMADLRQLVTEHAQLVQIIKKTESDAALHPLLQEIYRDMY
The description is as above. It counts as cell-based. The method, then: as §1, §2

The target in a further data set is T4, hPPARδ (Homo sapiens, UniProt Q03181).
T4 sequence (Q03181 171-441 limits assumed): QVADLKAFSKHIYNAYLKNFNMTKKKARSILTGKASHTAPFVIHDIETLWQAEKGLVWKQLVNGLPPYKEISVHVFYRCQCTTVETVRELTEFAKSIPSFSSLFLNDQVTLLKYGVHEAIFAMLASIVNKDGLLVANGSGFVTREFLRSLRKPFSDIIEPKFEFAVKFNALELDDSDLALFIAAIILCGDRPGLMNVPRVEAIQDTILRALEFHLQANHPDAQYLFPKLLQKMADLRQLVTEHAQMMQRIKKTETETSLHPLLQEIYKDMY
The data set is described as above. It counts as cell-based. The following applies: HEK-293, 24 h treatment. The method, then: as §1, §2

Another data set has as its system Kunming mice. The following applies: stated in Introduction, no method given; cited from earlier work.
Another data set deals with SIRT1 mRNA. The data set is described as follows: Quantitative real-time PCR of tissues of hyperlipidemic hamsters. It counts as in vivo, golden Syrian hamsters (Mesocricetus auratus). The following applies: short-term (3 days) and chronic (5 weeks) treatment. How it is done:
To determine the relative mRNA expression levels of lipid metabolism-related genes, total RNA was isolated from the liver, white adipose tissue (WAT) or muscle and real-time PCR was performed with the ABI PRISM 7300 sequence detection system (Applied Biosystems, Warrington, UK) as previously described. The relative amount of all mRNAs was calculated using the comparative CT method. Target gene expression is presented relative to β-actin expression.
Figure 9 Effects of ZBH on gene expression in hyperlipidemic hamsters. Relative gene expression of the indicated genes in the liver (A and B), WAT (C and D) and skeletal muscle (E and F) of hyperlipidemic hamsters following 3 days (A, C and E) and/or 5 weeks (B, D and F) of ZBH or BEZ administration was determined by QPCR. Results are normalized to β-actin and expressed as mean fold increase of mRNA ±SD compared to the normal hamsters (NC). n = 3. *P<0.05, **P<0.01, ***P<0.001 vs. MC group.

By EC50 is commonly meant the concentration at which the effect is half-maximal. Higher therefore signals weaker potency. On to `COc1ccc(/C=C/c2cc(OC)cc(OCCCC(C)(C)C(=O)O)c2)cc1` [ZBH, (E)-5-(3-methoxy-5-(4-methoxystyryl)phenoxy) -2,2-dimethylpentanoic acid], for which the Emax at SIRT1 turned out to be 136%. The concentration giving a half-maximal response (EC50) at hPPARγ is 25.4 µM; at hPPARα (HEK-293, 24 h treatment) it was 1.75 µM; on hPPARδ, 19.2 µM. The “PPARα transactivation selectivity over other PPAR subtypes (EC50 fold)” value at hPPARα (Discussion) stood at 11 fold. The “maximal activation of PPARα” value on hPPARα (HEK-293) is recorded as “approximately 11 fold”. Also, the “PPARα activation potency (EC50) relative to bezafibrate” value at hPPARα (ZBH vs bezafibrate) is listed as 21 fold. Further, the “PPARα activation exceeds PPARγ activation” value at hPPARα (selectivity α over γ) came to 14 fold. Moreover, the “PPARα activation exceeds PPARδ activation” value on hPPARα (selectivity α over δ) is recorded as 11 fold. The “oral LD50” value in the data set with Kunming mice is more than 1200 mg/kg. Moreover, the “SIRT1 mRNA expression in liver, adipose tissue and skeletal muscle” value in the data set on SIRT1 mRNA was “upregulated”.

Source of the values: paper PMC3997506, “Novel PPAR Pan Agonist, ZBH Ameliorates Hyperlipidemia and Insulin Resistance in High Fat Diet Induced Hyperlipidemic Hamster” (PLoS ONE, 2014).
